The nature of this data set: GHS categories as the set defines them, by LD50: 1 up to 5, 2 up to 50, 3 up to 300, 4 up to 2000, 5 above 2000 mg/kg. The conditions noted are these: rat; in vivo; po.

For the compound `Nc1nc(COc2ccc(Cl)cc2)nc(NCCc2ccccc2)n1`, the GHS category turned out to be 5.
`C=CC(C)C(=O)OCC` (stereo not drawn) registered a GHS category of 5.
Take `CCOC(=O)CC1(C)OCCO1`: the GHS category is 5.
In the case of `CCCC(=O)OC(C)(C)Cc1ccccc1`, the GHS category came out at 5.
On to `CCCCOC(=O)C(C)O` (stereo not drawn), for which the GHS category was 5.
In the case of `NP(N)(=O)Nc1ccccc1[N+](=O)[O-]` it was 5; in that of `CCSCCO`, 5.
In the case of `O=C(O)c1cc2ccccc2c(N=Nc2cc(Cl)ccc2Cl)c1O` it was 5; in that of `CCCCCCOc1ccc(-c2ccc(C#N)cc2)cc1`, 5; in that of `CCCCCCCC(=O)Nc1ccc(Cc2ccccn2)c([N+](=O)[O-])c1`, 3.
For `O=C(Nc1ccc(Cl)c(Cl)c1)c1cc(Cl)cc(-c2ccccc2)c1O`, the GHS category is given as 4.
`CCOC(=O)C(F)F`: the GHS category came out at 5.
`N#Cc1ccc(C#N)cc1` had a GHS category of 5.
`CCC(=O)OC1CC(=O)OC(C)CC=CC=CC(OC(C)=O)C(C)CC(CC=O)C(OC2OC(C)C(OC3CC(C)(OC(C)=O)C(OC(=O)CC)C(C)O3)C(N(C)C)C2O)C1OC` (stereo not drawn) came in with a GHS category of 5.
`O=C(O)CCCCCCCCCCCC(=O)O`: the GHS category is reported as 5.
On to `CO/N=C(/C(=O)N[C@@H]1C(=O)N2C(C(=O)OCOC(=O)C(C)(C)C)=C(C)CS[C@H]12)c1csc(N)n1`, for which the GHS category amounted to 5.
`COc1ccc2c(c1)CCN(c1ccccc1)C2c1ccc(O)cc1` (stereo not drawn) returned a GHS category of 4.
Take `CC1(C)C2CC[C@]3(C)C(CC=C4[C@H]5C[C@](C)(C(=O)O)CC[C@]5(C)CC[C@]43C)[C@@]2(C)CC[C@@H]1OC(=O)C=CC(=O)O` (stereo partly drawn): the GHS category was 5.
In the case of `CCC(C)(C)OC(=O)N[C@@H](Cc1c[nH]c2ccccc12)C(=O)N[C@@H](CCSC)C(=O)N[C@@H](CC(=O)O)C(=O)N[C@@H](Cc1ccccc1)C(N)=O` it was 5; in that of `O=P(OCC(CBr)(CBr)CBr)(OCC(CBr)(CBr)CBr)OCC(CBr)(CBr)CBr`, 5; in that of `Cc1ncc(COP(=O)(O)O)c(CN)c1O`, 5.
Compound `Nc1ccc(C(=O)O)cc1` had a GHS category of 5.
Regarding `CN1CCN(c2c(F)cc3c(=O)c(C(=O)O)cn(CCF)c3c2F)CC1`, the GHS category was determined as 5.
The compound `CC(CCC(=O)O)C(=O)O` (stereo not drawn) gave a GHS category of 4.
The result for `C=CCCCCCCCCC(OCC=C(C)CCC=C(C)C)OCC=C(C)CCC=C(C)C` (stereo not drawn) reads 5; that for `COc1cc(OC)nc(N=C(O)NS(=O)(=O)N(C)S(C)(=O)=O)n1`, 5.
For the compound `CC[C@H](C)[C@H](NC(=O)[C@H](CCC(=O)O)NC(=O)[C@H](CO)NC(=O)[C@@H](NC(=O)[C@@H](N)CO)C(C)C)C(=O)N[C@@H](CCC(N)=O)C(=O)N[C@@H](CC(C)C)C(=O)N[C@@H](CCSC)C(=O)N[C@@H](Cc1cnc[nH]1)C(=O)N[C@@H](CC(N)=O)C(=O)N[C@@H](CC(C)C)C(=O)NCC(=O)N[C@@H](CCCCN)C(=O)N[C@@H](Cc1cnc[nH]1)C(=O)N[C@@H](CC(C)C)C(=O)N[C@@H](CC(N)=O)C(=O)N[C@@H](CO)C(=O)N[C@@H](CCSC)C(=O)N[C@@H](CCC(=O)O)C(=O)N[C@@H](CCCNC(=N)N)C(=O)N[C@H](C(=O)N[C@@H](CCC(=O)O)C(=O)N[C@@H](Cc1c[nH]c2ccccc12)C(=O)N[C@@H](CC(C)C)C(=O)N[C@@H](CCCNC(=N)N)C(=O)N[C@@H](CCCCN)C(=O)N[C@@H](CCCCN)C(=O)N[C@@H](CC(C)C)C(=O)N[C@@H](CCC(N)=O)C(=O)N[C@@H](CC(=O)O)C(=O)N[C@H](C(=O)N[C@@H](Cc1cnc[nH]1)C(=O)N[C@@H](CC(N)=O)C(=O)N[C@@H](Cc1ccccc1)C(=O)O)C(C)C)C(C)C`, the GHS category was found to be 2.
In the case of `CCCCCCCCCCCCCCCC` it was 5; in that of `Cc1c(Cl)c(=O)oc2cc(OP(=O)(OCCCCCl)OCCCCCl)ccc12`, 3; in that of `CCN1C(=O)CCc2c(OCC(O)CN3CCC(Cc4ccccc4)CC3)cccc21` (stereo not drawn), 4.
In turn, `Oc1cc(O)ncn1` had a GHS category of 5.
With `Cc1ccc(-n2nccn2)c(C(=O)O)c1`, the GHS category stood at 5.
The compound `C[C@@H]1C[C@H]2C3C[C@H](F)C4=CC(=O)C=CC4(C)[C@@]3(F)[C@@H](O)CC2(C)[C@@]1(O)C(=O)COC(=O)C(C)(C)C` (stereo partly drawn) had a GHS category of 5.
In the case of `Nc1ccc(OS(=O)(=O)O)c(C(=O)O)c1`, the GHS category stood at 5.
`O=C(Cc1ccccc1)Cc1ccccc1`: the GHS category was 5.
Regarding `CC(=O)OCC1=CC[C@@]23C[C@@H]1C(C)(C)[C@@H]2CC[C@H]3C`, the GHS category turned out to be 5.
For the compound `CCOc1ccc(C(=O)NCc2ccc(OCCNC)cc2)cc1OCC`, the GHS category turned out to be 5.
For the compound `Cn1nnnc1SCCCC(=O)NCc1ccco1`, the GHS category came to 4.
In the case of `FC(F)CCl` it was 5.
`CC(=O)O[C@@H]1C[C@H](C)CC[C@H]1C(C)C` registered a GHS category of 5.
On to `O=C(C=Cc1ccccc1)OCCCc1ccccc1`, for which the GHS category is 5.
The compound `CCC(C)(NC(=O)c1cc(Cl)c(C)c(Cl)c1)C(=O)CCl` (stereo not drawn) had a GHS category of 5.
In the case of `COc1cc2c(cc1OC)[C@@H]1C[C@H](C[C@H]3CCCCN31)OC(=O)C=Cc1ccc(O)c-2c1` it was 4; in that of `CN(C)CCSc1nc2ccccc2cc1-c1ccccc1`, 4.
The compound `NC1=NC(=O)CC(=O)N1` yielded a GHS category of 5.
Regarding `Cc1nsc(NC(=O)c2ccccc2)c1C(=O)Nc1ccc(Cl)cc1`, the GHS category was determined as 5.
In the case of `Cc1ccc(C(=O)OCCCl)cc1N=Nc1c(O)c(C(=O)Nc2cc(C)c(NC(=O)c3cc4ccccc4c(N=Nc4cc(C(=O)OCCCl)ccc4C)c3O)cc2C)cc2ccccc12` it was 5; in that of `Cc1cc(C(=O)NCCc2ccc(S(=O)(=O)NC(=O)NN3CCCCCC3)cc2)no1`, 5.
For the compound `CC(C)C[C@H](NC(=O)CNC(=O)[C@H](Cc1ccc(O)cc1)NC(=O)[C@H](CO)NC(=O)[C@H](Cc1c[nH]c2ccccc12)NC(=O)[C@H](Cc1cnc[nH]1)NC(=O)[C@@H]1CCC(=O)N1)C(=O)N[C@@H](CCCN=C(N)N)C(=O)N1CCC[C@H]1C(=O)NCC(N)=O`, the GHS category is listed as 5.
As to `CCN(Cc1cccc(S(=O)(=O)O)c1)c1ccc(C(=C2C=CC(=[N+](CC)Cc3cccc(S(=O)(=O)O)c3)C=C2)c2ccccc2S(=O)(=O)[O-])cc1`, the GHS category stood at 5.
In the case of `Cc1cccc2ncc(C(=O)NC3CCCC3)c(=O)n12` it was 3; in that of `CCCCCOC(=O)CC`, 5.
As for `OC1CCOC1` (stereo not drawn), the GHS category was 5.
Compound `COc1ccc(C(=O)N2CCN(c3ccc4c(c3)CCC(=O)N4)CC2)cc1OC` gave a GHS category of 5.
In turn, `CCN(CC)C(=O)CCSCc1nnnn1C` displayed a GHS category of 4.
The compound `COC(=O)C1=C(C)NC(C)=C(C(=O)OC2COC3C(O)COC23)C1c1cccc([N+](=O)[O-])c1` (stereo not drawn) had a GHS category of 5.
For the compound `CCCCCCCCCCCCCCCCCC(=O)OC[C@@H](OC(=O)CCCCCCCCCCCCCCCCC)[C@H]1OC[C@H](O)[C@H]1OC(=O)CCCCCCCCCCCCCCCCC`, the GHS category stood at 5.
As to `Nc1nc(/C(=C/CC(=O)O)C(=O)N[C@@H]2C(=O)N3C(C(=O)O)=CCS[C@H]23)cs1`, the GHS category amounted to 5.
